System: mouse stomach-derived ghrelin-secreting cell line MGN3-1
Assay: Secretion of active (acylated) ghrelin from MGN3-1 cells, ELISA
Assay type: cell-based
Conditions: for Acylated ghrelin (% control): 2 hours culture, control = 100; for ghrelin secretion promoting effect: conclusion from Table 3, absence of a gastric lipase
Experimental: The mouse stomach-derived ghrelin-secreting cell line MGN3-1 was seeded at 1×10^5 cells/well in a 96-well plate and cultured for 24 hours. After culturing, the cells were washed with 200 μL of Dulbecco's PBS, and 100 μL of each solution containing one test substance as indicated in Table 1 (buffer solution: 50 μM sodium octanoate/DMEM) was added (test group). The concentration of the test substance was applied at 10 μM or 30 μM. In the control group, 100 μL of a buffer solution without test substance was added. The number of trials performed, n, for each group was 4. After each group was cultured for 2 hours, a culture solution was recovered and centrifuged (800 g, 5 minutes, 4° C.) to obtain 80 μL of a supernatant. The supernatant was added with 8 μL of 1 N HCl and stored at −80° C. Next, active ghrelin (acylated ghrelin) in the sample was measured by the ELISA method (Ghrelin (Acylated) EIA Kit A05117, Bertin Pharma). Average values of measured values of the concentrations of ghrelin secreted when the test substances as indicated in Table 2 or Table 3 were added were calculated and indicated as values (%) assuming that the value of the control is 100 (Tables 2 and 3). The test was conducted again using the same testing method as described above, and the concentration of active ghrelin (acylated ghrelin) secreted in the sample was measured (FIGS. 2 and 3).
Statistical analysis was performed using a t-test or one-way ANOVA (one-way analysis of variance), and a multiple comparison test was conducted using the Tukey-Kramer test.

[1] = Table 2, test substance 10 μM, n=4
[2] = Table 2, test substance 30 μM, n=4
[3] = Table 3, test substance 30 μM, n=4

| Structure (SMILES) | Acylated ghrelin (% control) [1] | Acylated ghrelin (% control) [2] | Acylated ghrelin (% control) [3] | ghrelin secretion promoting effect (30 μM) | other results |
| --- | --- | --- | --- | --- | --- |
| CCCCCCCCCCCCCCCC(=O)O [Test substance 1, Palmitic acid, reference compound] | 82 % control | 107 % control | – | – | difference of acylated ghrelin from the control (Table 2, concentration not stated (10 μM and 30 μM tested)): no differences |
| CCCCCCCC/C=C\CCCCCCCC(=O)O [Test substance 2, Oleic acid] | 146 % control | 138 % control | – | – | – |
| CCCCCCCCCCCCCCCC(=O)OCC(O)CO (centres unmarked) [Test substance 3, 1-Monopalmitin] | 105 % control | 134 % control | – | – | difference of acylated ghrelin from the control (Table 2, 10 μM): no differences; acylated ghrelin concentration as compared with the control (Table 2, printed 30 M): increase |
| CCCCCCCCCCCCCCCC(=O)OC(CO)CO [Test substance 4, 2-Monopalmitin] | 168 % control | 218 % control | 389 % control | – | increase of acylated ghrelin concentration as compared with the control (FIG. 1, repeat test, 30 μM, n=4, significant (p<0.05)): about 1.2 times |
| CCCCCCCC/C=C\CCCCCCCC(=O)OCC(O)CO (centres unmarked) [Test substance 5, 1-Monoolein] | 177 % control | 209 % control | 388 % control | – | – |
| CCCCCCCC/C=C\CCCCCCCC(=O)OC(CO)CO [Test substance 6, 2-Monoolein] | 193 % control | 206 % control | 336 % control | – | – |
| CCCCCCCC/C=C\CCCCCCCC(=O)OCC(CO)OC(=O)CCCCCCCCCCCCCCC (centres unmarked) [Test substance 7, 1-Oleoyl-2-palmitoylglycerol] | – | – | 237 % control | ghrelin secretion promoting effect | – |
| CCCCCCCC/C=C\CCCCCCCC(=O)OC(CO)COC(=O)CCCCCCCCCCCCCCC (centres unmarked) [Test substance 8, 1-Palmitoyl-2-oleoylglycerol] | – | – | 206 % control | ghrelin secretion promoting effect | – |
| CCCCCCCC/C=C\CCCCCCCC(=O)OCC(COC(=O)CCCCCCC/C=C\CCCCCCCC)OC(=O)CCCCCCCCCCCCCCC [Test substance 9, 1,3-Dioleoyl-2-palmitoylglycerol] | – | – | 116 % control | ghrelin secretion promoting effect | acylated ghrelin concentration as compared with the control (summary of Table 3, 30 μM): increased |
| CCCCCCCC/C=C\CCCCCCCC(=O)OC(COC(=O)CCCCCCCCCCCCCCC)COC(=O)CCCCCCCCCCCCCCC [Test substance 10, 1,3-Dipalmitoyl-2-oleoylglycerol] | – | – | 138 % control | ghrelin secretion promoting effect | acylated ghrelin concentration as compared with the control (summary of Table 3, 30 μM): increased |

From patent publication US20260206813A1, “COMPOSITION FOR PROMOTING GHRELIN SECRETION” (Meiji Co., Ltd., priority 2022, published 2026)
